Patent US4789683A, “Benzamido-derivatives” (priority 1981, dated 1988)
Where two headings read alike, the source gives them in different places.

Tests used:
[1] = molecular target: T1, DA receptors in the brain (Rattus norvegicus, UniProt P61169); assay: Block of apomorphine-induced stereotypies in the rat (0-3 scale); format: in vivo, Male Sprague-Dawley rats
T1 construct: from tissue; host or cells: brain of live male Sprague-Dawley rats (in vivo behavioural test)
Description: There are presently several techniques available to study DA receptor blockage in the brain in vico. One method is based on the ability of antipsychotic drugs to block the behavioural effects induced by the DA agonist apomorphine in the rat.
Directly after injection, the animals were placed in the cages, one in each cage. Scoring of the stereotypies were performed by two separate methods. […] The strength of the stereotype was scored on a 0-3 scale as follows:
3 Continous sniffing. Chewing, biting and licking.
In the second system the number of animals displaying hyperactivity caused by apomorphine were scored. Each group consisted of 6-8 animals. Saline controls were always run simultaneously. […] The ED50 were calculated from log dose-response curves by the method of least squares from 4-6 dose levels with 6-8 animals per dose level.

[2] = system: DA receptors in the brain; assay: Block of apomorphine-induced hyperactivity in the rat; format: in vivo, Male Sprague-Dawley rats; conditions: for Block of apomorphine ED50, hyperactivity: i.p., 60 min prior to apomorphine HCl 1 mg/kg s.c.; for potency to block apomorphine, ED50 Hyperactivity: p.o., rat
Description: There are presently several techniques available to study DA receptor blockage in the brain in vico. One method is based on the ability of antipsychotic drugs to block the behavioural effects induced by the DA agonist apomorphine in the rat. […] The stereotypies (chewing, […], biting) appear mainly to be induced via activation of DA receptors linked to the neostriatal DA system (J. Psychiat. […] Directly after injection, the animals were placed in the cages, one in each cage. Scoring of the stereotypies were performed by two separate methods. […] The strength of the stereotype was scored on a 0-3 scale as follows: In the second system the number of animals displaying hyperactivity caused by apomorphine were scored. Each group consisted of 6-8 animals. Saline controls were always run simultaneously.

[3] = experimental animals; cited from earlier work
[4] = in vivo; cited from earlier work
[5] = rat, ip, 60 min prior to apomorphine HCl 1 mg/kg s.c., read-out: Block of apomorphine ED50, stereotypes
[6] = po, rat, read-out: potency to block apomorphine, ED50 Stereotypies

T1 sequence (P61169 whole entry): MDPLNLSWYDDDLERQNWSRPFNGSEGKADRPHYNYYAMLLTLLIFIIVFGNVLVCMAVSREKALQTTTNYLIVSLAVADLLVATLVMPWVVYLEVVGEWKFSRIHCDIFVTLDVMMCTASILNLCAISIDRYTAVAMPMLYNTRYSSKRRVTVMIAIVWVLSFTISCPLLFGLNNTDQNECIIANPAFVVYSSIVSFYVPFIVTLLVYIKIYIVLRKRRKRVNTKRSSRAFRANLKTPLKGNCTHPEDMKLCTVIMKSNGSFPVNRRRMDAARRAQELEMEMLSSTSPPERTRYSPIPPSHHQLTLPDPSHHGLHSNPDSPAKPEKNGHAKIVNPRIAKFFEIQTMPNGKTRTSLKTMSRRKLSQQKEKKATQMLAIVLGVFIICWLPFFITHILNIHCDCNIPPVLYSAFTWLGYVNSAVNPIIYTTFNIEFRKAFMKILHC

| SMILES | Block of apomorphine ED50, hyperactivity [2] | ED50 [1, 5] | ED50 [1, 6] | potency to block apomorphine, ED50 Hyperactivity [2] | other results |
| --- | --- | --- | --- | --- | --- |
| CCN1CCCC1CNC(=O)c1cc(S(N)(=O)=O)ccc1OC (stereo not drawn) [Sulpiride, reference compound] | 50 µmol/kg |  |  |  | activity after oral administration ([1]; p.o., rat, apomorphine stereotypies and hyperactivity, in words): lost all activity; ED50 ([1]; rat, ip, read-out: Block of apomorphine ED50, stereotypes): 203 µmol/kg; catalepsy [3]: weak catalepsy; extrapyramidal side effects [4]: weak extrapy ramidal side effects |
| CCN1CCCC1CNC(=O)c1c(O)ccc(Br)c1OC (stereo not drawn) [FLA 908] | 1.1 µmol/kg | 10 µmol/kg |  |  |  |
| CCN1CCCC1CNC(=O)c1c(O)c(Br)cc(Br)c1OC (single isomer, unassigned) [FLA 659 (-)] | 0.40 µmol/kg | 2.3 µmol/kg | 12 µmol/kg | 3.2 µmol/kg |  |
| CCOc1ccc(Br)c(O)c1C(=O)NCC1CCCN1CC (stereo not drawn) [FLA 901] | 1.1 µmol/kg | 3.4 µmol/kg |  |  |  |
| CCN1CCCC1CNC(=O)c1c(O)c(Cl)cc(Cl)c1OC (single isomer, unassigned) [FLA 870 (-)] | 0.11 µmol/kg |  |  |  | Block of apomorphine ED50, stereotypes ([1]; i.p., 60 min prior to apomorphine HCl 1 mg/kg s.c.): 2.4 µmol/kg |
| CCCN1CCCC1CNC(=O)c1c(OC)ccc(Br)c1O (single isomer, unassigned) [FLA 889 (-)] | 0.27 µmol/kg | 0.75 µmol/kg |  |  |  |
| CCN1CCCC1CNC(=O)c1c(OC)ccc(Br)c1OC(C)=O (stereo not drawn) [FLA 903] |  | 0.53 µmol/kg |  |  |  |
| CCN1CCCC1CNC(=O)c1c(OC)ccc(Br)c1O (stereo not drawn) [FLA 797] | 0.22 µmol/kg | 1.1 µmol/kg |  |  |  |
| CCN1CCCC1CNC(=O)c1c(OC)ccc(Cl)c1O (single isomer, unassigned) [FLA 814 (-)] | 0.14 µmol/kg | 1.1 µmol/kg | 25 µmol/kg | 4.4 µmol/kg |  |
| CCOc1ccc(Br)c(O)c1C(=O)NCC1CCCN1CC (single isomer, unassigned) [901(-)] |  |  | 34 µmol/kg | 3.0 µmol/kg |  |
| CCN1CCCC1CNC(=O)c1c(OC)ccc(Br)c1O (single isomer, unassigned) [FLA 797 (-)] | 0.035 µmol/kg | 0.38 µmol/kg | 22 µmol/kg | 3 µmol/kg |  |
